Results as given in ChEMBL document CHEMBL1136038, “Parallel solution- and solid-phase synthesis of spiropyrrolo-pyrroles as novel neurokinin receptor ligands” (Bioorg Med Chem Lett, 2002).

The molecules below were run against Substance-P receptor (Homo sapiens, UniProt P25103) (assay: Affinity for human Tachykinin receptor 1 expressed in CHO cells).
Type: cell-based

Sequence of Substance-P receptor (P25103 whole entry): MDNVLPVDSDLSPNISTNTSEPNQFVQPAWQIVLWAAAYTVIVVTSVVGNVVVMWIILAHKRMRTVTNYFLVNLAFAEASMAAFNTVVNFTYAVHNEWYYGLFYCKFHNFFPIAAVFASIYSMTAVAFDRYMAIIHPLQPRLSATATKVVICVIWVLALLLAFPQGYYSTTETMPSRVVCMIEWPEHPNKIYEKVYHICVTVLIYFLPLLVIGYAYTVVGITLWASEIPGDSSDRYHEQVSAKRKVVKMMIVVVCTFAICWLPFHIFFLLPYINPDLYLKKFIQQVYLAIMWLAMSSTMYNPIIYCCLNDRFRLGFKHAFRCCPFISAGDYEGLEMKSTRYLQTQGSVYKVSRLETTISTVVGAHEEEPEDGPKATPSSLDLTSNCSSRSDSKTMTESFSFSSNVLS

Row | Compound | Ki
1 | O=C1C2CN(C(=O)c3sc4ccccc4c3Cl)C3(CCNCC3)C2C(=O)N1Cc1cc(C(F)(F)F)cc(C(F)(F)F)c1 (configuration not stated) | 501 nM
2 | CN1C(=O)C2CN(Cc3cccs3)C3(CCN(C(=O)c4cc(C(F)(F)F)cc(C(F)(F)F)c4)CC3)C2C1=O (configuration not stated) | 513 nM
3 | CS(=O)(=O)N1CCC2(CC1)C1C(=O)N(Cc3cc(C(F)(F)F)cc(C(F)(F)F)c3)C(=O)C1CN2C(=O)c1ccc2ccccc2c1 (configuration not stated) | 263 nM
4 | CN1C(=O)C2CN(S(=O)(=O)c3ccc4ccccc4c3)C3(CCN(C(=O)c4cc(C(F)(F)F)cc(C(F)(F)F)c4)CC3)C2C1=O (configuration not stated) | 38.9 nM
5 | O=C1C2CN(C(=O)COCc3ccccc3)C3(CCNCC3)C2C(=O)N1Cc1cc(C(F)(F)F)cc(C(F)(F)F)c1 (configuration not stated) | 2290 nM

Other lines, results leading:

Row | Ki | Compound
6 | 30.9 nM | O=C1COc2ccc(S(=O)(=O)N3CCC4(CC3)C3C(=O)N(c5ccccc5)C(=O)C3CN4C(=O)c3cc(C(F)(F)F)cc(C(F)(F)F)c3)cc2N1 (configuration not stated)
7 | 302 nM | CC(C)(C)C(=O)N1CCC2(CC1)C1C(=O)N(c3ccccc3)C(=O)C1CN2C(=O)c1cc(C(F)(F)F)cc(C(F)(F)F)c1 (configuration not stated)
8 | 8.32 nM | O=C(c1cc(C(F)(F)F)cc(C(F)(F)F)c1)N1CCC2(CC1)C1C(=O)N(c3ccccc3)C(=O)C1CN2C(=O)CN1CCOCC1 (configuration not stated)
9 | 30.2 nM | COc1ccc(OC)c(S(=O)(=O)N2CCC3(CC2)C2C(=O)N(c4ccccc4)C(=O)C2CN3C(=O)c2cc(C(F)(F)F)cc(C(F)(F)F)c2)c1 (configuration not stated)
10 | 75.9 nM | Cc1noc(C)c1S(=O)(=O)N1CCC2(CC1)C1C(=O)N(c3ccccc3)C(=O)C1CN2C(=O)c1cc(C(F)(F)F)cc(C(F)(F)F)c1 (configuration not stated)
11 | 5.13 nM | CS(=O)(=O)N1CC2C(=O)N(c3ccccc3)C(=O)C2C12CCN(C(=O)c1cc(C(F)(F)F)cc(C(F)(F)F)c1)CC2 (configuration not stated)
12 | 794 nM | COc1ccccc1C(=O)N1CC2C(=O)N(C)C(=O)C2C12CCN(C(=O)c1cc(C(F)(F)F)cc(C(F)(F)F)c1)CC2 (configuration not stated)
